Assay results reported in patent US8338422B2, “Indolin-2-ones and aza-indolin-2-ones” (Janssen Pharmaceutica NV, priority 2007, dated 2012).
Several values for one entry are separate records, joined by “and”; a condition that tells them apart may be missing. Equal values may be shown once.

Assays:
MCF-7 = assay: Cellular proliferation assay (Alamar blue), MCF-7; format: cell-based; settings: Homo sapiens, MCF7, MCF-7 cells, 72 hours with compound, 10% FCS, read-out: pIC50 MCF-7 (converted)
Experimental: (§1) […] functional properties of these compounds was tested in cellular proliferation assays on a panel of different cell lines in the presence of 10% FCS serum (37° C. and 5% (v/v) CO2). In a first step these cells were seeded and incubated for 24 hours in the absence of compound. In the second step the cells were incubated for 72 hours with the compounds to be tested for 72 hours. The viable cell number was finally assessed in a standard Alamar blue cell viability assay.
(§2) The viable cell number was assessed by incubation for either 4 h (HCT-116, H1299, H460) 6 h (SKOV3, HT29, U87-MG, Colo205) or 24 h (A2780, PC3, MDA-MB-231, A549, MCF-7) with Alamar blue (Resazurin 9 μg/ml, K-Ferrocyanide 90 μM K-Ferricyanide 90 μM) and the converted fluorescent product was quantified on a fluorescent plate readed (544 nm/590 nm). Effect of the compounds is calculated as of on control cells.

CDK1/CyclinB (h) = CDK1/CyclinB (h) (Homo sapiens, UniProt P06493); assay: CDK1/CyclinB human kinase assay (FRET); format: biochemical; settings: read-out: CDK1 pIC50 (converted)
Summary of the method: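 Z'-LYTE FRET format: 0.2 μg/ml enzyme with 2 μM Ser/Thr peptide 12 and 10 μM ATP in 50 mM Hepes pH 7.5, 10 mM MgCl2, 1 mM EGTA, 0.01% Brij-35, 60 min at room temperature. Protease development 60 min; coumarin/fluorescein emission ratio (460/538 nm, excitation 390 nm) reports phosphorylation.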

H1299 = assay: Cellular proliferation assay (Alamar blue), H1299; format: cell-based; settings: Homo sapiens, NCI-H1299, 72 h, H1299 cells, 72 hours with compound, 10% FCS, read-out: pIC50 H1299 (converted)
Summary of the method: (§3)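 Proliferation was assessed over 72 h of compound treatment, following 24 h of seeding without compound, under 10% FCS, 37° C. and 5% CO2. Fluorescent resazurin product was measured and compared with control cells.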

AuroraB (h) = AuroraB (h) (Homo sapiens, UniProt Q96GD4); assay: Aurora-B human kinase assay (SPA); format: biochemical; settings: read-out: AuroraB pIC50 (converted)
Summary of the method: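 Scintillation proximity assay: AuroraB (h) at 0.5 μg/ml with 3 μM biotinylated peptide, 0.5 μM ATP and 2.2 nM [γ-33P]ATP in 60 mM Hepes pH 7.5, 3 mM MgCl2, 3 mM MnCl2, 2 mM DTT. 60 min at room temperature, EDTA stop, streptavidin PVT beads read on Leadseeker.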

SK-N-SH = assay: Cellular proliferation assay (Alamar blue), SK-N-SH; format: cell-based; settings: Homo sapiens, SK-N-SH cells, 72 hours with compound, 10% FCS, read-out: pIC50 SK-N-SH (converted)
Experimental: as §1, §2

GSK3β (h) = GSK3β (h) (Homo sapiens, UniProt P49841); assay: GSK-3β human kinase assay (SPA); format: biochemical; settings: read-out: GSK3B pIC50 (converted)
Summary of the method: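 Radiometric SPA read-out: after EDTA stop, biotinylated 33P-labelled peptide bound streptavidin PVT beads and was imaged on Leadseeker. Reaction: 60 min, room temperature, GSK3β (h) at 1 μg/ml, 1 μM substrate peptide, 1 μM ATP with 2 nM [γ-33P]ATP, Tris pH 7.4/MgCl2/DTT buffer.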

MDA/MB231 = assay: Cellular proliferation assay (Alamar blue), MDA/MB231; format: cell-based; settings: Homo sapiens, MDA-MB-231, 72 h, MDA/MB231 cells, 72 hours with compound, 10% FCS, read-out: pIC50 MDA/MB231 (converted)
Summary of the method: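 Seed cells, 24 h, no compound; add compound, 72 h, 10% FCS, 37° C./5% CO2; add resazurin 9 μg/ml with K-ferrocyanide and K-ferricyanide 90 μM each (4 h H460, 24 h MDA-MB-231); read fluorescence 544/590 nm; effect vs control cells.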

H460 = assay: Cellular proliferation assay (Alamar blue), H460; format: cell-based; settings: Homo sapiens, NCI-H460, H460 cells, 72 hours with compound, 10% FCS, read-out: pIC50 H460 (converted)
Experimental: as §1, §2

HCT-116 = assay: Cellular proliferation assay (Alamar blue), HCT-116; format: cell-based; settings: Homo sapiens, HCT-116, 72 h, HCT-116 cells, 72 hours with compound, 10% FCS, read-out: pIC50 HCT-116 (converted)
Summary of the method: as §3

PC-3 = assay: Cellular proliferation assay (Alamar blue), PC-3; format: cell-based; settings: Homo sapiens, PC-3, 72 h, PC-3 cells, 72 hours with compound, 10% FCS, read-out: pIC50 PC-3 (converted)
Summary of the method: as §3

Colo205 = assay: Cellular proliferation assay (Alamar blue), Colo205; format: cell-based; settings: Homo sapiens, COLO 205, Colo205 cells, 72 hours with compound, 10% FCS, read-out: pIC50 Colo205 (converted)
Experimental: as §1, §2

Chain of CDK1/CyclinB (h) (P06493 whole entry): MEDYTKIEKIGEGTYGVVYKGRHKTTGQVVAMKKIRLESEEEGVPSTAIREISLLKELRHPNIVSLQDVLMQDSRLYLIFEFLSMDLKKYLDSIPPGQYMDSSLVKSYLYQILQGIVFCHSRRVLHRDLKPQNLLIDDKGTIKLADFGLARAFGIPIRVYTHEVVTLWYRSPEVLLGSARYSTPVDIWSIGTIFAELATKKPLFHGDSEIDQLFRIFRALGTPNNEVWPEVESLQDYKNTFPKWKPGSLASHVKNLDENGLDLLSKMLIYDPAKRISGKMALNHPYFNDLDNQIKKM
Chain of CDK1/CyclinB (h) (P14635 whole entry partner): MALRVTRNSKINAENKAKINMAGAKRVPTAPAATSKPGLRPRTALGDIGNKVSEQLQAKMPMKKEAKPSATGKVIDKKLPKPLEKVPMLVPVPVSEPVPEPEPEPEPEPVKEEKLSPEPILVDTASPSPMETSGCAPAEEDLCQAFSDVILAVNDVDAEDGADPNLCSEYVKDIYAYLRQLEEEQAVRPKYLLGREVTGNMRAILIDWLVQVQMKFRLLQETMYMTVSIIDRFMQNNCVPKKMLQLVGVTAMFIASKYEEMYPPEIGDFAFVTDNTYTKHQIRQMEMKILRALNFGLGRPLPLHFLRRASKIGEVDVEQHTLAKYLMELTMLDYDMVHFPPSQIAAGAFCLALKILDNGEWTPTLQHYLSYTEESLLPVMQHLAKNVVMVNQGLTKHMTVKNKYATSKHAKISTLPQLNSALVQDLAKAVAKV
Chain of GSK3β (h) (P49841 whole entry): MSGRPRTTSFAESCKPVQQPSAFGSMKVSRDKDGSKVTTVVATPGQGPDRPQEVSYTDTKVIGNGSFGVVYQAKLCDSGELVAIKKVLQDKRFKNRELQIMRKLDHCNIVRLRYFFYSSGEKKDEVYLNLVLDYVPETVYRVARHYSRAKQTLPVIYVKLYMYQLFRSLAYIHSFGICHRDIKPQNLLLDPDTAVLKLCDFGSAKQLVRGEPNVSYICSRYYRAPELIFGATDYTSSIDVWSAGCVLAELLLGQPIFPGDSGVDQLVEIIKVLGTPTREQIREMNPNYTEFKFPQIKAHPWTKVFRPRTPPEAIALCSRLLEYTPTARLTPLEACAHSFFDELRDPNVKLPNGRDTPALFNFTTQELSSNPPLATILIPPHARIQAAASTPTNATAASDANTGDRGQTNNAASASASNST
Chain of AuroraB (h) (Q96GD4 whole entry): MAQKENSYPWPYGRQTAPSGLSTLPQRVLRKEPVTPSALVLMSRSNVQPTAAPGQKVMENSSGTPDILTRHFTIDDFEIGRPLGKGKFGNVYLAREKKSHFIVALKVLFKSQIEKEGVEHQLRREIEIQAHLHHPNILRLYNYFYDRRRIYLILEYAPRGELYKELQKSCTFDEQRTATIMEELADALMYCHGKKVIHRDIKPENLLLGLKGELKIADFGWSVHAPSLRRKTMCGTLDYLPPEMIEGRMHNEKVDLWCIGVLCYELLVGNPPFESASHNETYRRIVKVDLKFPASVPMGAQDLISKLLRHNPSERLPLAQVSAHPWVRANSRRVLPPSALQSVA

SMILES	IC50 (MCF-7) [µM]	IC50 (CDK1/CyclinB (h))	IC50 (H1299) [µM]	IC50 (AuroraB (h))	IC50 (SK-N-SH) [µM]	IC50 (GSK3β (h))	IC50 (MDA/MB231) [µM]	IC50 (H460) [µM]	IC50 (HCT-116) [µM]	IC50 (PC-3) [µM]	IC50 (Colo205) [µM]
COc1ccc2cc1OCCCCCC(=O)N1CCN(CC1)c1ncnc3c1/C(=C/N2)C(=O)N3 [Compound 18]	5.75	> 10 µM	> 10	> 10 µM	> 10	0.891 µM	> 10	> 10	> 10	2.34	> 10
COc1ccc2cc1OCCCC(=O)N(C)CCCNc1ncnc3c1/C(=C/N2)C(=O)N3 [Compound 9]	< 0.302	0.132 µM and 0.12 µM	0.407	0.0501 µM and 0.0513 µM	< 0.302	0.0209 µM and 0.0234 µM	1.38	0.372	0.457	0.457	0.354
COc1ccc2cc1OCCCC(=O)N(C)CCCN(C)c1ncnc3c1/C(=C/N2)C(=O)N3 [Compound 31]	0.575	4.68 µM	0.646	1.38 µM and 1.58 µM	< 0.302	0.309 µM and 0.313 µM	1.91	1	1.58	1.66	1.95
